The values below come from paper PMC12564449, “Multifaceted Biological Activity of Selected Flavone C-Monoglucosides” (International Journal of Molecular Sciences, 2025).

Where a name gives a salt, the structure may show the parent alone. Read-outs that look alike come from different tables or passages of the source. Marks after values point to notes of the source that are not given here.

For orientation: IC50 means the concentration needed to halve the response being measured.

In series [1] the test system is advanced glycation end-products (AGEs) formation in BSA/methylglyoxal (MGO) model system. Nature of the series: Inhibition of AGEs formation, BSA/MGO model system. The format is biochemical, bovine. The settings on record: for IC50: read-out: IC50 against AGEs formation, BSA-MGO System; for anti-AGEs activity higher in relation to AG: relative to AG. As for the experimental part:
(§1) The inhibitory activity against AGEs formation was performed in the bovine serum albumin (BSA)/glucose and BSA/methylglyoxal (MGO) model systems as described recently by Zielińska et al.. Standards of OR, hOR, VT, iVT, and Q were initially dissolved in a small volume of DMSO and then in phosphate buffer (0.1 M, pH 7.4) to obtain 1 mM (DMSO/phosphate buffer; 1:5; v/v). The positive control aminoguanidine (1 mM AG) was used. The percentage (%) of inhibition was obtained from three repetitions (n = 3). The IC50, indicating the concentration of the compound at which formation of AGEs is inhibited by 50%, was determined through linear regression analysis.

Series [2] concerns advanced glycation end-products (AGEs) formation in BSA/glucose model system. The experiment in a line: Inhibition of AGEs formation, BSA/glucose model system. Particulars: for IC50: read-out: IC50 against AGEs formation, BSA-Glucose System. The format is biochemical, bovine. The procedure: as §1
For series [3] the following is noted: vs. NHE; cited from earlier work.
Series [4] deals with T1, angiotensin-converting enzymes (ACE) from porcine kidneys (Sus scrofa, UniProt F1RRW5).
T1 construct: angiotensin-converting enzymes (ACE) from porcine kidneys (EC 3.4.15.1); purchased Sigma (Sigma Chemical Company, Saint Louis, MO, USA); host or cells: porcine kidney
T1 sequence (F1RRW5 34-1309): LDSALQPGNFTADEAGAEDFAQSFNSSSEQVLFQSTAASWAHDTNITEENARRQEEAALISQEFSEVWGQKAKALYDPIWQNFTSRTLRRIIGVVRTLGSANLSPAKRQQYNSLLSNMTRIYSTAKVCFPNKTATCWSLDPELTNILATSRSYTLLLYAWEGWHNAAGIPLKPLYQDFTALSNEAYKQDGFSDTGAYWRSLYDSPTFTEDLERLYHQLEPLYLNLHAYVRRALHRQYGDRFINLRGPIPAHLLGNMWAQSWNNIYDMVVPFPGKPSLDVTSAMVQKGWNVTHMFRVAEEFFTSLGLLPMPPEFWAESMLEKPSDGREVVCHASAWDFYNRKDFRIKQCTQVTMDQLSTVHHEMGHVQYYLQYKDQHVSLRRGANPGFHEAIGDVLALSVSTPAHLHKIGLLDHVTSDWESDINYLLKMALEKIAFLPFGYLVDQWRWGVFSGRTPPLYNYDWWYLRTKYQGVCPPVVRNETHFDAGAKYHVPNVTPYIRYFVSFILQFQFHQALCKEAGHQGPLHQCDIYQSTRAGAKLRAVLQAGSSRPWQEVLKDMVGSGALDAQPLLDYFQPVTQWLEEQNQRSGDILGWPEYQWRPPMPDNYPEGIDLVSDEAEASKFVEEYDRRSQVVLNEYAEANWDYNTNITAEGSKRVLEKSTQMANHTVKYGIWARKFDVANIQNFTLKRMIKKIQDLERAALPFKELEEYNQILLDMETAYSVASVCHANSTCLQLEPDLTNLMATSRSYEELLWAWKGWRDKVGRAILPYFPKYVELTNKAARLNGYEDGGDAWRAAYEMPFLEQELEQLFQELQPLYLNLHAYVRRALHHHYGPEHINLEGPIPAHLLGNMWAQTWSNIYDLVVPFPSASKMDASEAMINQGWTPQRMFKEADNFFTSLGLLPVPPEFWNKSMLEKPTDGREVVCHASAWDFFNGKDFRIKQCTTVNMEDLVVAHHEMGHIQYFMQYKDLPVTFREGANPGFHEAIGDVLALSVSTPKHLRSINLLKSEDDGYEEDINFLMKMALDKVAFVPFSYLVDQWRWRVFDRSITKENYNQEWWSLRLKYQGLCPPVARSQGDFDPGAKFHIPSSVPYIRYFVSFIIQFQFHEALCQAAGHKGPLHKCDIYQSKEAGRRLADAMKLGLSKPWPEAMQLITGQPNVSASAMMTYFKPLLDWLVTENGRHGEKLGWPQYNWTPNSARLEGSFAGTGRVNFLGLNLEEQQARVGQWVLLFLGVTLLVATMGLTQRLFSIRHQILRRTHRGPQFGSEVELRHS
The experiment in a line: Angiotensin-I-converting enzyme inhibitory activity (fluorometric). It is filed as biochemical. The procedure: Angiotensin converting enzyme (ACE) inhibitory activity was performed according to the method of Sentandreu and Toldra. The details of the procedure were described recently by Zielińska et al.. Standards of OR (luteolin-8-C-glucoside), hOR (luteolin-6-C-glucoside), VT (apigenin-8-C-glucoside), iVT (apigenin-6-C-glucoside), and Q (quercetin) were dissolved in 80% methanol. Each standard was diluted to various concentrations using deionized water. The multiscan microplate fluorometer (Tecan Infinite M1000 PRO, TK Biotech, Warsaw, Poland) was used, and the IC50 value indicating the sample concentration at which 50% inhibition of ACE activity was determined by using linear regression analysis of logarithmic plots. At least 3 replicates for each standard solution were conducted.

The target of series [5] is T2, acetylcholinesterase (AChE) (Homo sapiens, UniProt P22303).
T2 construct: purchased Sigma Chemical Co. (Poznań, Poland)
T2 sequence (P22303 32-614, species assumed): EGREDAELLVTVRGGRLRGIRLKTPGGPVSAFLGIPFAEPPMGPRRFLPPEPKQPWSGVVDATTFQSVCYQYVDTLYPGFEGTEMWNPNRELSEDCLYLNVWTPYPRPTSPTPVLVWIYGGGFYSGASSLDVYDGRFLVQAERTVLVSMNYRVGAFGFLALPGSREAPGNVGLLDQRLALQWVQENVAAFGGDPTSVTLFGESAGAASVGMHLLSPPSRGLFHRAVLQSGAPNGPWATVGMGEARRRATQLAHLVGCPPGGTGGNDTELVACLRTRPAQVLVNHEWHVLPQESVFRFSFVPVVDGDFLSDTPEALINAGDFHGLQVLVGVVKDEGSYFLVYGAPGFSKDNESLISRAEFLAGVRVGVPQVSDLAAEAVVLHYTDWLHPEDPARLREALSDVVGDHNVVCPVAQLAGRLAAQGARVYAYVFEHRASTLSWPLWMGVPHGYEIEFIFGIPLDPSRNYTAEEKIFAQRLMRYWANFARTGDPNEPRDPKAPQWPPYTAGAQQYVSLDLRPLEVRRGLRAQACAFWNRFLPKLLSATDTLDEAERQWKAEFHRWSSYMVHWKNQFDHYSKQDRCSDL
The experiment in a line: Acetylcholinesterase inhibitory activity. It is filed as biochemical. Particulars: for AChE inhibitory activity, times lower than that of galanthamine: relative to galanthamine. The procedure: The AChE inhibitory activity was evaluated following the methodology adapted from Eldeen et al., and details of the procedure were provided recently by Zielińska et al.. […] All measurements were conducted using a microplate reader (Tecan Infinite M1000 PRO, TK Biotech, Warsaw, Poland). […] At least 3 replicates for each standard solution were carried out.

Series [6] can be described thus: Differential pulse voltammetry: anodic peak potentials and antioxidant activity. The format is physicochemical. The settings on record: DPV; for Anodic Peak Potential Epa (mV) Epa1: glassy carbon electrode; for Antioxidant Activity (mM Trolox): area under anodic peaks, Trolox regression; for antioxidant activity lower in relation to the antioxidant activity of Q: relative to quercetin. The procedure: Electrochemical measurements were performed at room temperature (25 ± 2 °C) in a small-volume electrochemical cell using a potentiostat type SP-240 (BioLogic Science Instruments, Seyssinet-Pariset, France) controlled by EC-Lab V11.36 software. Differential pulse voltammograms were obtained with a pulse amplitude of 100 mV, a potential step of 5 mV, and a modulation time of 0.2 s. Four scans were registered for each sample, and the reported data correspond to the average of at least three replicates. The working electrode was a glassy carbon electrode, GCE (3 mm diameter, BASi M-2012, and the auxiliary and reference electrodes were platinum wire (BASi MW-1033) and Ag/AgCl (3 M KCl, BASi-MW-2052). All potentials are quoted against the used reference electrode. Before each scan, the surface of the glassy carbon electrode was polished on a polishing cloth with 0.05 μm alumina paste and ultrasonically rinsed in deionized water. After polishing, the electrode was washed with ultrapure water and dried with absorbent paper. DPV measurements were carried out in a standard solution of flavone C-monoglucosides and quercetin at a final concentration of 250 μM. Before measurements, the standard solutions were diluted in 0.2 M acetate-acetic buffer (in 80% methanol) at pH 5.0 (v/v: 1:1). Buffer solution also served as a supporting electrolyte. For the test purpose, from registered DPV voltammograms, the anodic oxidation potentials (Epa) in mV and the integrated area under anodic peaks in μA were determined.

Setting [7] is: ACE from porcine kidneys, linear regression, read-out: IC50 for ACE inhibition.
Where [8] appears, read: 0.25 mM standard solutions, acetate-acetic buffer pH 5.0 in 80% methanol, vs. Ag/AgCl.

Regarding `N=C(N)NN` [Aminoquanidine (AG), aminoguanidine hydrochloride, reference compound], the results for the IC50 in series [1] and in series [2] were 531 ± 28 µM and 432 ± 36 µM, respectively.

Turning to `N[C@@H](CCC(=O)N[C@@H](CS)C(=O)NCC(=O)O)C(=O)O` [Glutathione (GSH), Glutathione], the standard redox potential result in series [3] was “around −0.23 V”.

As to `O=c1cc(-c2ccc(O)c(O)c2)oc2cc(O)c([C@@H]3O[C@H](CO)[C@@H](O)[C@H](O)[C@H]3O)c(O)c12` [Homoorientin (hOR), 3′,4′,5,7-tetrahydroxyflavone-6-glucoside], in series [1], the IC50 was found to be 391 ± 22 µM and the “anti-AGEs activity higher in relation to AG” value (“anti-AGEs activity higher” below) is recorded as 26%. For the same molecule, the IC50 in series [2] amounted to 14 ± 8 µM. Further, in series [2] (relative to Q), the “anti-AGEs activity times higher in relation to Q” value is recorded as roughly 17 times. In series [2] (relative to VT), the “anti-AGEs activity times higher in relation to VT” value was “about 18 times”. Further, in series [2] (relative to iVT), the “anti-AGEs activity times higher in relation to iVT” value is on record as roughly 15 times. Besides, the IC50 in series [4] (setting [7]) was determined as 114 ± 1.23 µM. For the same molecule, in series [5], the IC50 came to 0.581 ± 0.096 µM and the “AChE inhibitory activity, times lower than that of galanthamine” value is reported as 14–20 times. In addition, in series [6] (setting [8]), the “Anodic Peak Potential Epa (mV) Epa1” value is recorded as 336 ± 5 ^b mV and the “Anodic Peak Potential Epa (mV) Epa2” value is on record as 960 ± 9 ^b mV. In addition, the “Anodic Peak Potential Epa (mV) Epa1” value in series [6] (0.25 mM standard solutions, acetate-acetic buffer pH 5.0 in 80% methanol, vs. Ag/AgCl, listed as hOR) was found to be 336 mV. In addition, in series [6], the “Antioxidant Activity (mM Trolox)” value is listed as 3.24 ± 0.15 ^b mM Trolox and the “antioxidant activity lower in relation to the antioxidant activity of Q” value is given as 15%.

On to `O=c1cc(-c2ccc(O)cc2)oc2cc(O)c([C@@H]3O[C@H](CO)[C@@H](O)[C@H](O)[C@H]3O)c(O)c12` [Isovitexin (iVT), 4′,5,7-trihydroxyflavone-6-glucoside], for which the IC50 in series [1] turned out to be 341 ± 20 µM; in series [2] it was 214 ± 11 µM; in series [4] (setting [7]) it was 161 ± 3.27 µM; in series [5], 1.08 ± 0.011 µM. In addition, the “Anodic Peak Potential Epa (mV) Epa1” value in series [6] (setting [8]) is recorded as 926 ± 8 ^a mV; in series [6] (0.25 mM standard solutions, acetate-acetic buffer pH 5.0 in 80% methanol, vs. Ag/AgCl, listed as iVT) it was 926 mV. Besides, the “Antioxidant Activity (mM Trolox)” value in series [6] is given as 1.06 ± 0.07 ^c mM Trolox.

On to `O=c1cc(-c2ccc(O)c(O)c2)oc2c([C@@H]3O[C@H](CO)[C@@H](O)[C@H](O)[C@H]3O)c(O)cc(O)c12` [Orientin (OR), 3′,4′,5,7-tetrahydroxyflavone-8-glucoside], for which the IC50 worked out at 326 ± 19 µM in series [1]; 73 ± 5 µM in series [2]; 122 ± 2.66 µM in series [4]; 0.868 ± 0.088 µM in series [5] (linear regression, read-out: IC50 for AChE inhibition). Also, the “anti-AGEs activity higher” value in series [1] was determined as 39%. For the same molecule, the “ACE inhibitory activity lower as compared to hOR” value in series [4] (relative to hOR) was 6.9%. In series [5], the “AChE inhibitory activity, times lower than that of galanthamine” value was 14–20 times. In addition, the “Anodic Peak Potential Epa (mV) Epa1” value is recorded as 345 ± 6 ^b mV in series [6] (setting [8]) and 345 mV in series [6] (0.25 mM standard solutions, acetate-acetic buffer pH 5.0 in 80% methanol, vs. Ag/AgCl, listed as OR). Further, in series [6] (setting [8]), the “Anodic Peak Potential Epa (mV) Epa2” value is reported as 1020 ± 9 ^a mV. Moreover, the “Antioxidant Activity (mM Trolox)” value in series [6] was 3.00 ± 0.14 ^b mM Trolox. Moreover, in series [6], the “antioxidant activity lower in relation to the antioxidant activity of Q” value was found to be 21%.

For `O=c1c(O)c(-c2ccc(O)c(O)c2)oc2cc(O)cc(O)c12` [Quercetin (Q), 3,3′,4′,5,7-pentahydroxyflavone, reference compound], in series [1], the IC50 was determined as 466 ± 17 µM and the “anti-AGEs activity higher” value worked out at 12%. In addition, the IC50 in series [2] was 243 ± 12 µM. The molecule further returned an IC50 in series [5] of 1.37 ± 0.077 µM. Also, in series [6] (setting [8]), the “Anodic Peak Potential Epa (mV) Epa1” value is on record as 255 ± 7 ^c mV, the “Anodic Peak Potential Epa (mV) Epa2” value was 510 ± 8 ^c mV and the “Anodic Peak Potential Epa (mV) Epa3” value is 1060 ± 10 mV. The “Anodic Peak Potential Epa (mV) Epa1” value in series [6] (0.25 mM standard solutions, acetate-acetic buffer pH 5.0 in 80% methanol, vs. Ag/AgCl, listed as Q) came to 255 mV. For the same molecule, in series [6], the “Antioxidant Activity (mM Trolox)” value was 3.81 ± 0.19 ^a mM Trolox.

As for `O=c1cc(-c2ccc(O)cc2)oc2c([C@@H]3O[C@H](CO)[C@@H](O)[C@H](O)[C@H]3O)c(O)cc(O)c12` [Vitexin (VT), 4′,5,7-trihydroxyflavone-8-glucoside], the IC50 is 437 ± 17 µM in series [1], 255 ± 16 µM in series [2], 135 ± 2.45 µM in series [4] (setting [7]) and 1.28 ± 0.089 µM in series [5]. Besides, in series [1], the “anti-AGEs activity higher” value is 18%. For the same molecule, the “ACE inhibitory activity higher in comparison to iVT” value in series [4] (relative to iVT) came out at 19.6%. Also, the “Anodic Peak Potential Epa (mV) Epa1” value in series [6] (setting [8]) is 925 ± 8 ^a mV; in series [6] (0.25 mM standard solutions, acetate-acetic buffer pH 5.0 in 80% methanol, vs. Ag/AgCl, listed as VT) it was 925 mV. Moreover, the “Antioxidant Activity (mM Trolox)” value in series [6] is given as 0.93 ± 0.07 ^c mM Trolox.
